The numbers were not newly measured in patent publication EP2033945A1, “Quaternary ammonium salts” (Infineum International Limited, priority 2007, dated 2009), which cites them from elsewhere.

Each structure is given as a SMILES string.

For this data set the following is noted: first dissociation constant where the acid is polybasic; from CRC Handbook of Chemistry and Physics, 68th edition, page D161.

Consider `O=C(O)c1ccccc1C(=O)O` [phthalic acid], for which the pKa is recorded as 2.9. Consider `O=C(O)c1c(O)cc(O)cc1O` [2,4,6-trihydroxybenzoic acid], for which the pKa is 1.7.
